Assay results as given in ChEMBL document CHEMBL2424535, “Fragment-based discovery of focal adhesion kinase inhibitors” (Bioorg Med Chem Lett, 2013).

What was measured:
[1] = Partition coefficient, log P of the compound; assay type: physicochemical; conditions: octanol/water
[2] = Lipophilicity, log D of the compound at pH 7.4; assay type: physicochemical; conditions: buffer

logP ([1]; read-out: logP) | logD ([2]; read-out: logD) | logP [1] | logD [2] | SMILES
5.13 | 3.88 |  |  | Cc1ccc(-n2nc(C(C)(C)C)cc2NC(=O)Nc2ccc(-c3ccc(N)nc3)cc2)cc1
3.86 | 3.81 |  |  | Cc1ccc(-n2nc(C(C)(C)C)cc2NC(=O)Nc2ccc(-n3nnnc3C)cc2)cc1
4.25 | 4.02 |  |  | COc1ccc(-c2ccc(NC(=O)Nc3cc(C(C)(C)C)nn3-c3ccc(C)cc3)cc2)cn1
4.35 | 3.85 |  |  | Cc1ccc(-n2nc(C(C)(C)C)cc2NC(=O)Nc2ccc(-n3ccnc3)cc2)cc1
4.96 | 4.49 |  |  | Cc1ccc(-n2nc(C(C)(C)C)cc2NC(=O)Nc2ccc(-c3cnco3)cc2)cc1
4.6 | 4.33 |  |  | Cc1ccc(-n2nc(C(C)(C)C)cc2NC(=O)Nc2ccc(-n3cncc3C)cc2)cc1
 |  | 2.86 | 3.89 | Cc1ccc(-n2nc(C(C)(C)C)cc2NC(=O)Nc2ccc(-c3nnc(S)n3C)cc2)cc1
> 5.4 | 3.94 |  |  | Cc1ccc(-n2nc(C(C)(C)C)cc2NC(=O)Nc2ccc(-c3ccc(OCc4ccccc4)nc3)cc2)cc1
> 5 | 3.58 |  |  | Cc1ccc(-n2nc(C(C)(C)C)cc2NC(=O)Nc2ccc(-c3ccncc3)cc2)cc1
4.14 | 3.79 |  |  | Cc1ccc(-n2nc(C(C)(C)C)cc2NC(=O)Nc2ccc(-n3cnnn3)cc2)cc1
4.07 | 3.94 |  |  | Cc1ccc(-n2nc(C(C)(C)C)cc2NC(=O)Nc2ccc(-n3cnnc3)cc2)cc1
4.83 | 4.08 |  |  | Cc1ccc(-n2nc(C(C)(C)C)cc2NC(=O)Nc2ccc(-n3cnc(C)c3)cc2)cc1
> 5.4 | 3.96 |  |  | Cc1ccc(-n2nc(C(C)(C)C)cc2NC(=O)Nc2ccc(-n3cnc(Cl)c3Cl)cc2)cc1
4.84 | 4.25 |  |  | Cc1ccc(-n2nc(C(C)(C)C)cc2NC(=O)Nc2ccc(-c3cccnc3)cc2)cc1
3.98 | 4.05 |  |  | Cc1ccc(-n2nc(C(C)(C)C)cc2NC(=O)Nc2ccc(-n3cnc4c(N)ncnc43)cc2)cc1
3.34 | 3.21 |  |  | Cc1ccc(-n2nc(C(C)(C)C)cc2NC(=O)Nc2ccc(-c3nncn3C)cc2)cc1
> 5.4 | 3.94 |  |  | COc1cc(OC)nc(-c2ccc(NC(=O)Nc3cc(C(C)(C)C)nn3-c3ccc(C)cc3)cc2)n1
5.15 | 4.58 |  |  | Cc1ccc(-n2nc(C(C)(C)C)cc2NC(=O)Nc2ccc(-c3csnn3)cc2)cc1
